Data as given in US20230399332A1, “IMIDAZO[1,2-a]PYRAZINE OR PYRAZOLO[1,5-a]PYRIMIDINE DERIVATIVE AND USE THEREOF” (TENCENT TECHNOLOGY (SHENZHEN) COMPANY LIMITED, priority 2022, published 2023).
Where two headings read alike, the source gives them in different places.

Tests used:
[1] = Pharmacokinetics after intravenous injection or oral administration in mice; format: in vivo; settings: mouse, plasma, CD-1 mice, 5 mg/kg; for AUC(0-t): read-out: Curve area AUC0-t; for half-life: read-out: Half-life T1/2 (converted)
Protocol: This experiment was carried out to test pharmacokinetic properties of the compounds of the present disclosure in mice.
A tested compound was dissolved in a mixture of 10% DMSO, 10% Solutol HS15 and 80% normal saline, and subjected to vortex treatment and ultrasonic treatment to obtain a corresponding concentration of a clarified solution. Then, the clarified solution was filtered with a microporous filter membrane for later use. A resulting tested compound solution was injected intravenously to CD-1 mice with a body weight of 21 to 27 g at a dose of 5 mg/kg. A tested compound was dissolved in a mixture of 10% DMSO, 10% Solutol HS15 and 80% normal saline, and subjected to vortex treatment and ultrasonic treatment to obtain a corresponding concentration of a clarified solution. Then, the clarified solution was filtered with a microporous filter membrane for later use. A resulting tested compound solution was administered orally to CD-1 mice with a body weight of 21 to 27 g at a dose of 5 mg/kg. Whole blood was collected at certain time points, and plasma was prepared. Drug concentration was analyzed by an LC-MS/MS method, and pharmacokinetic parameters were calculated by Phoenix WinNonlin software.

LSD1 = LSD1 (Homo sapiens (Human), UniProt O60341); assay: LSD1 inhibitory activity on an enzyme level, AlphaScreen method; format: biochemical; settings: in vitro
Protocol: This experiment was carried out to test the in vitro inhibitory activity of the compounds of the present disclosure against LSD1.
Experimental steps and a method: In this experiment, the in vitro inhibitory activity of the compounds of the present disclosure against LSD1 on an enzyme level was tested by using an AlphaScreen method. The experimental steps are described as follows: • a) preparation of a 1× buffer: • preparing a 1× buffer (improved trihydroxymethylaminomethane buffer); • b) continuous dilution of the compounds: • transferring the compounds of the present disclosure to a porous plate by using Echo at a final DMSO concentration of 1%; • c) preparation of an enzyme solution: • preparing an enzyme solution in the 1× buffer; • d) preparation of a substrate solution: • adding polypeptide to the 1× buffer to prepare a substrate solution; • e) transferring 5 μL of the enzyme solution or the 1× buffer to the porous plate; • f) conducting incubation at room temperature for 15 min; • g) adding 5 μL of the substrate solution to each well to induce a reaction; • h) conducting incubation at room temperature for 40 min; • i) preparing a 1× Alphalisa buffer; • j) preparation of a 1× Alphalisa buffer solution of receptors and donors: • adding 15 μL of a receptor and donor solution in dark light environment, and conducting incubation at room temperature for 60 min; • k) reading an endpoint in an EnSpire Alpha mode; and • l) data processing: • calculating an inhibitory value according to an equation 1:
Inh %=(Max−Signal)/(Max−Min)*100; and equation 1: • calculating an IC50 value by using XL-Fit according to an equation 2:
Y=Bottom+(Top-Bottom)/(1+(IC50/X)[…]), equation 2: • where Y indicates the inhibitory rate, and X indicates the concentration of a compound.

hERG = hERG (Homo sapiens (Human), UniProt Q12809); assay: hERG inhibitory activity, whole cell patch clamp in CHO hERG cells; format: cell-based; settings: for inhibition at 10 µM: human, CHO cells that express hERG, read-out: hERG inhibitory rate
hERG, sequence (Q12809 whole entry): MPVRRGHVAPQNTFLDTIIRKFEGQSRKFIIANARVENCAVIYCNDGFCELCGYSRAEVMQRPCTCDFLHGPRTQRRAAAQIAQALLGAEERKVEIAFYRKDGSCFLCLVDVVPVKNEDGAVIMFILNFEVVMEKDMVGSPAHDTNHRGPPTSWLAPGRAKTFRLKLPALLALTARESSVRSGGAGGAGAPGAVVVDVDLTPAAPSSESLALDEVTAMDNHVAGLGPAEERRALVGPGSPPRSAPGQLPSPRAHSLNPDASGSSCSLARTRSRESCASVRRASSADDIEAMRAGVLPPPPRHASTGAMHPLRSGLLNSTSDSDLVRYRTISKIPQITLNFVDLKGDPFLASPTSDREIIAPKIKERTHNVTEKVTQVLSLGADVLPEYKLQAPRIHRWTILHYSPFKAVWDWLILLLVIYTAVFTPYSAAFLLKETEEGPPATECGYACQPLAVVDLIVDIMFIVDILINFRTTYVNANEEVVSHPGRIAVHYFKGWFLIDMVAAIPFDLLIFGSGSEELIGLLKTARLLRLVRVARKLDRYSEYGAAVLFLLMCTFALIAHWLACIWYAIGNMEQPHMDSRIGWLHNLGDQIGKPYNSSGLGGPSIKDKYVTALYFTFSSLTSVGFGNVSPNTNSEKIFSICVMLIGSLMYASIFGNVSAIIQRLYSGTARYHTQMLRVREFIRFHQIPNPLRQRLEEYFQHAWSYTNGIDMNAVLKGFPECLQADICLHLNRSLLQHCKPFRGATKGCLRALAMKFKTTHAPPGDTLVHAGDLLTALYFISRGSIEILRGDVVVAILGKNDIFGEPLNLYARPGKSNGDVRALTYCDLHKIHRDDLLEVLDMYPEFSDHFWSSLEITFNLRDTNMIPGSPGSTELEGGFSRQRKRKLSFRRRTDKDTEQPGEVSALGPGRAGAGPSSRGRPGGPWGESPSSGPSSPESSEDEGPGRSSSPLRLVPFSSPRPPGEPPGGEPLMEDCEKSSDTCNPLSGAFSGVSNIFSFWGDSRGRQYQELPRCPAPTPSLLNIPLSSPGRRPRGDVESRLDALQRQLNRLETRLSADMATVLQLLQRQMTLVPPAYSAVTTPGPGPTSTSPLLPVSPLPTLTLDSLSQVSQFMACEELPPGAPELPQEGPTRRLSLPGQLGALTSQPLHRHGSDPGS
Protocol: This experiment was carried out to test the in vitro inhibitory activity of the compounds of the present disclosure against hERG.
In this method, whole cell recording was conducted by using a HEKA EPC 10 USB patch clamp amplifier (HEKA Elektronik, Germany). A cover slide with a large number of individual CHO hERG cells on the surface was removed and placed in a recording tank which was treated with continuous perfusion (about 1 ml/min) and loaded into an inverted microscope. Currents of hERG channels of the individual cells were recorded by using a standard whole cell recording method. A fixed voltage of −80 mV was applied to the cells by a voltage clamp. The hERG currents were activated by depolarization at +20 mV for 5 s, and then the currents were changed back at −50 mV for 5 s to remove a passivation effect and observe deactivated tail currents. Potassium ion tail currents observed in the hERG channels were stabilized by continuous perfusion in this step. Then, the cells were treated with a drug of the present disclosure until a stable state was reached. A stable state was considered as being reached when three consecutive superimposed currents were recorded. At this time point, the cells were treated again with an extracellular solvent until the current amplitude was changed back to near the level before administration. Cisapride was used in a control experiment to verify that the mass and response of hERG cells were in a normal state.

CC(C)(O)Cn1nnc2cc(-c3c(-c4ccc(C#N)c(F)c4)nc4c(N5[C@@H]6CC[C@H]5[C@@H](N)C6)nccn34)c(F)cc21 [Compound 27, 4-(8-((1S,2S,4R)-2-amino-7-azabicyclo[2.2.1]heptane-7-yl)-3-(6-fluoro-1-(2-hydroxy-2-methylpropyl)-1H-benzo[d][1,2,3]triazol-5-yl)imidazo[1,2-a]pyrazin-2-yl)-2-fluorobenzonitrile]
Vd ([1]; intravenous injection, read-out: Apparent volume of distribution V): 5.04 L/kg
clearance ([1]; intravenous injection, read-out: Clearance rate CL): 7.25 mL/min/kg
AUC(0-t) ([1]; intravenous injection): 11500 ng·h/mL
half-life ([1]; intravenous injection): 8.33 h
Cmax ([1]; oral administration, read-out: Blood drug concentration Cmax): 648 ng/mL
AUC(0-t) ([1]; oral administration): 6530 ng·h/mL
half-life ([1]; oral administration): 5.86 h
IC50 (LSD1): 1 nM

CC(C)(O)Cn1nnc2cc(-c3c(-c4ccc(C#N)c(F)c4)nc4c(N5CCC[C@@H](N)C5)nccn34)ccc21 [Compound 20, (R)-4-(8-(3-aminopiperidin-1-yl)-3-(1-(2-hydroxy-2-methylpropyl)-1H-benzo[d][1,2,3]triazol-5-yl)imidazo[1,2-a]pyrazin-2-yl)-2-fluorobenzonitrile]
IC50 (LSD1): 2.6 nM
inhibition at 10 µM (hERG): 26.7%

CC(C)(O)Cn1nnc2cc(-c3c(-c4ccc(C#N)c(F)c4)nc4c(N5CCC[C@@H](N)C5)nccn34)c(F)cc21 [Compound 12, (R)-4-(8-(3-aminopiperidin-1-yl)-3-(6-fluoro-1-(2-hydroxy-2-methylpropyl)-1H-benzo[d][1,2,3]triazol-5-yl)imidazo[1,2-a]pyrazin-2-yl)-2-fluorobenzonitrile]
IC50 (LSD1): 1.6 nM
inhibition at 10 µM (hERG): 27%

CC(C)(O)Cn1nnc2cc(-c3c(-c4ccc(C#N)c(F)c4)nc4c(N5CCC[C@@H](N)C5)nccn34)c(F)cc21 [Compound 18, (R)-4-(8-(3-aminopiperidin-1-yl)-3-(6-fluoro-1-(2-hydroxy-2-methylpropyl)-1H-benzo[d][1,2,3]triazol-5-yl)imidazo[1,2-a]pyrazin-2-yl)-2-fluorobenzonitrile]
hERG inhibitory rate (hERG; 10 μM): 43.72%
